Measurements published in patent US9840475B2, “N-(substituted)-5-fluoro-4-imino-3-methyl-2-oxo-3,4-dihydropyrimidine-1(2H)-carboxamide derivatives” (Adama Makhteshim Ltd., priority 2012, dated 2017).
Where two headings read alike, the source gives them in different places.

Key:
[1] = system: Mycosphaerella graminicola; anamorph: Septoria tritici; Bayer code SEPTTR; test: Evaluation of fungicidal activity: leaf blotch of wheat (SEPTTR), disease control on wheat plants; type: in vivo; conditions: Zymoseptoria tritici
Description: Evaluation of Fungicidal Activity: Leaf Blotch of Wheat (Mycosphaerella graminicola; anamorph: Septoria tritici; Bayer code […]) Wheat plants (variety Yuma) were grown from seed in a greenhouse in 50% mineral soil/50% soil-less Metro mix until the first leaf was fully emerged, with 7-10 seedlings per pot. These plants were inoculated with an aqueous spore suspension of Septoria tritici either prior to or after fungicide treatments. After inoculation the plants were kept in 100% relative humidity (one day in a dark dew chamber followed by two to three days in a lighted dew chamber) to permit spores to germinate and infect the leaf. The plants were then transferred to a greenhouse for disease to develop. The following table presents the activity of typical compounds of the present disclosure when evaluated in these experiments. The effectiveness of the test compounds in controlling disease was determined by assessing the severity of disease on treated plants, then converting the severity to percent control based on the level of disease on untreated, inoculated plants.

[2] = 24 h, 100 ppm, one-day protectant, wheat plants (variety Yuma), percent control vs untreated, inoculated plants, read-out: SEPTTR 100 PPM 1DP (One-Day Protectant activity, % disease control rating)
[3] = 72 h, 100 ppm, three-day curative, wheat plants (variety Yuma), percent control vs untreated, inoculated plants, read-out: SEPTTR 100 PPM 3DC (Three-Day Curative activity, % disease control rating)
[4] = 24 h, read-out: SEPTTR 100 PPM 1DP (One-Day Protectant activity, % disease control rating)
[5] = 72 h, read-out: SEPTTR 100 PPM 3DC (Three-Day Curative activity, % disease control rating)

Question: With `Cn1c(=N)c(F)cn(C(=O)Nc2ccccc2)c1=O` as the compound, how does the melting point read?
Answer: 192.3 to 194.4 °C

Question: Which pest or weed control at 100 ppm [1, 2] does the source give for `Cc1ccc(NC(=O)n2cc(F)c(=N)n(C)c2=O)cc1` [Compound 1] here?
Answer: 51 to 75%

Question: And the pest or weed control at 100 ppm [1, 3]?
Answer: 0 to 25%

Question: What about the melting point of the same compound?
Answer: 184.7 to 186.2 °C

Question: For `Cn1c(=N)c(F)cn(C(=O)Nc2ccc(Cl)cc2)c1=O` [Compound 2], which pest or weed control at 100 ppm [1, 4] is on record?
Answer: 26 to 50%

Question: And the pest or weed control at 100 ppm [1, 5]?
Answer: 0 to 25%

Question: And the melting point?
Answer: 199 to 200.8 °C

Question: Which results are given for `Cn1c(=N)c(F)cn(C(=O)Nc2cc(F)cc(F)c2)c1=O` [Compound 3, N-(3,5-difluorophenyl)-5-fluoro-4-imino-3-methyl-2-oxo-3,4-dihydropyrimidine-1(2H)-carboxamide]?
Answer: pest or weed control at 100 ppm [1, 2]: 0 to 25%; pest or weed control at 100 ppm [1, 3]: 51 to 75%; melting point: 203 to 204.5 °C

Question: With `COc1ccc(NC(=O)n2cc(F)c(=N)n(C)c2=O)cc1` [Compound 4] as the compound, how does the pest or weed control at 100 ppm [1, 4] read?
Answer: 51 to 75%

Question: What about the pest or weed control at 100 ppm [1, 5] of the same compound?
Answer: 26 to 50%

Question: What about the melting point of the same compound?
Answer: 194.8 to 195.4 °C

Question: For `Cc1ccc(NC(=S)n2cc(F)c(=N)n(C)c2=O)cc1` [Compound 5], which pest or weed control at 100 ppm [1, 4] is on record?
Answer: 76 to 100%

Question: And the pest or weed control at 100 ppm [1, 5]?
Answer: 76 to 100%

Question: For `Cn1c(=N)c(F)cn(C(=S)Nc2ccc(Cl)cc2)c1=O` [Compound 6, N-(4-chlorophenyl)-5-fluoro-4-imino-3-methyl-2-oxo-3,4-dihydropyrimidine-1(2H)-carbothioamide], which pest or weed control at 100 ppm [1, 2] is on record?
Answer: 76 to 100%

Question: And the pest or weed control at 100 ppm [1, 3]?
Answer: 76 to 100%

Question: For `Cn1c(=N)c(F)cn(C(=O)Nc2ccsc2)c1=O` [Compound 7], which pest or weed control at 100 ppm [1, 2] is on record?
Answer: 51 to 75%

Question: What about the pest or weed control at 100 ppm [1, 3] of the same compound?
Answer: 76 to 100%

Question: What about the melting point of the same compound?
Answer: 194.2 to 195.2 °C

Question: Which pest or weed control at 100 ppm [1, 2] does the source give for `Cn1c(=N)c(F)cn(C(=O)Nc2cccs2)c1=O` [Compound 8] here?
Answer: 51 to 75%

Question: What about the pest or weed control at 100 ppm [1, 3] of the same compound?
Answer: 76 to 100%

Question: What about the melting point of the same compound?
Answer: 200.3 to 201.8 °C

Question: Which pest or weed control at 100 ppm [1, 2] does the source give for `COc1ccccc1NC(=O)n1cc(F)c(=N)n(C)c1=O` [Compound 9] here?
Answer: 26 to 50%

Question: What about the pest or weed control at 100 ppm [1, 3] of the same compound?
Answer: 76 to 100%

Question: What about the melting point of the same compound?
Answer: 168.9 to 170 °C

Question: For `Cc1cccc(NC(=O)n2cc(F)c(=N)n(C)c2=O)c1` [Compound 10], which pest or weed control at 100 ppm [1, 2] is on record?
Answer: 0 to 25%

Question: What about the pest or weed control at 100 ppm [1, 3] of the same compound?
Answer: 51 to 75%

Question: What about the melting point of the same compound?
Answer: 188.5 to 192.4 °C

Question: What does the source list for `Cn1c(=N)c(F)cn(C(=O)Nc2ccc(C(F)(F)F)cc2)c1=O` [Compound 11]?
Answer: pest or weed control at 100 ppm [1, 2]: 0 to 25%; pest or weed control at 100 ppm [1, 3]: 0 to 25%; melting point: 192.4 to 195.7 °C

Question: For `Cn1c(=N)c(F)cn(C(=O)Nc2cccc(F)c2)c1=O` [Compound 12], which pest or weed control at 100 ppm [1, 2] is on record?
Answer: 51 to 75%

Question: What about the pest or weed control at 100 ppm [1, 3] of the same compound?
Answer: 0 to 25%

Question: What about the melting point of the same compound?
Answer: 197.5 to 199.4 °C

Question: For `Cn1c(=N)c(F)cn(C(=O)Nc2ccc(F)cc2)c1=O` [Compound 13], which pest or weed control at 100 ppm [1, 2] is on record?
Answer: 0 to 25%

Question: And the pest or weed control at 100 ppm [1, 3]?
Answer: 26 to 50%

Question: What about the melting point of the same compound?
Answer: 194 to 196 °C

Question: For `Cn1c(=N)c(F)cn(C(=O)Nc2cc(Cl)cc(Cl)c2)c1=O` [Compound 14], which pest or weed control at 100 ppm [1, 4] is on record?
Answer: 0 to 25%

Question: What about the pest or weed control at 100 ppm [1, 5] of the same compound?
Answer: 0 to 25%

Question: And the melting point?
Answer: 210 to 213.1 °C

Question: Which pest or weed control at 100 ppm [1, 2] does the source give for `Cn1c(=N)c(F)cn(C(=O)Nc2cccc(C#N)c2)c1=O` [Compound 15] here?
Answer: 0 to 25%

Question: And the pest or weed control at 100 ppm [1, 3]?
Answer: 26 to 50%

Question: And the melting point?
Answer: 204.1 to 205.5 °C

Question: Which results are given for `Cc1ccc(NC(=O)n2cc(F)c(=N)n(C)c2=O)cc1Cl` [Compound 16]?
Answer: pest or weed control at 100 ppm [1, 2]: 76 to 100%; pest or weed control at 100 ppm [1, 3]: 26 to 50%; melting point: 192.9 to 193.5 °C

Question: With `COc1ccc(OC)c(NC(=O)n2cc(F)c(=N)n(C)c2=O)c1` [Compound 17] as the compound, how does the pest or weed control at 100 ppm [1, 2] read?
Answer: 76 to 100%

Question: And the pest or weed control at 100 ppm [1, 3]?
Answer: 76 to 100%

Question: And the melting point?
Answer: 168.3 to 169.6 °C

Question: Which pest or weed control at 100 ppm [1, 2] does the source give for `Cn1c(=N)c(F)cn(C(=O)Nc2ccc(F)cc2Cl)c1=O` [Compound 18] here?
Answer: 51 to 75%

Question: What about the pest or weed control at 100 ppm [1, 3] of the same compound?
Answer: 0 to 25%

Question: What about the melting point of the same compound?
Answer: 203.6 to 205.5 °C

Question: What does the source list for `COc1ccc(NC(=O)n2cc(F)c(=N)n(C)c2=O)cc1F` [Compound 19]?
Answer: pest or weed control at 100 ppm [1, 2]: 76 to 100%; pest or weed control at 100 ppm [1, 3]: 26 to 50%; melting point: 194.3 to 196.3 °C

Question: Which results are given for `Cc1cc(NC(=O)n2cc(F)c(=N)n(C)c2=O)c(C)cc1Cl` [Compound 20]?
Answer: pest or weed control at 100 ppm [1, 2]: 51 to 75%; pest or weed control at 100 ppm [1, 3]: 26 to 50%; melting point: 210 to 213 °C

Question: Which pest or weed control at 100 ppm [1, 2] does the source give for `COc1cccc(NC(=O)n2cc(F)c(=N)n(C)c2=O)c1` [Compound 21] here?
Answer: 0 to 25%

Question: What about the pest or weed control at 100 ppm [1, 3] of the same compound?
Answer: 0 to 25%

Question: What about the melting point of the same compound?
Answer: 195.5 to 196.3 °C

Question: Which pest or weed control at 100 ppm [1, 2] does the source give for `Cn1c(=N)c(F)cn(C(=S)Nc2cc(Cl)cc(Cl)c2)c1=O` [Compound 22] here?
Answer: 51 to 75%

Question: And the pest or weed control at 100 ppm [1, 3]?
Answer: 26 to 50%
